Laboratory results from patent publication US4130644A, “7-Acylamine-3-(sulfoalkyl substituted oxadiazolylthiomethyl) cephalosporins and pharmaceutical compositions containing them” (SmithKline Corporation, priority 1977, dated 1978).
In brackets after ≈: the same amount, converted by molar mass.

Experiments:
[1] = test system: Shigella HH 117; assay: in vitro minimum inhibitory concentration (MIC); format: cell-based; conditions: HH117; Shigella HH 117, in vitro
Description: (§1) The compounds of Formula I have exceptional antibacterial activity against both Gram-positive and Gram-negative organisms. Minimum inhibitory concentrations (MIC's) range from 0.2 to <200 μg./ml. in in vitro testing. Test results for the compound 7-D-mandelamido-3-(5-sulfomethyl-1,3,4-oxadiazol-2-ylthiomethyl)-3-cephem- 4-carboxylic acid are given below: […]

[2] = test system: Salmonella ATCC 12176; assay: in vitro minimum inhibitory concentration (MIC); format: cell-based; conditions: ATCC12176; Salmonella ATCC 12176, in vitro
Description: as §1

[3] = test system: E. coli HH 33779; assay: in vitro minimum inhibitory concentration (MIC); format: cell-based; conditions: Escherichia coli, HH33779; E. coli HH 33779, in vitro
Description: as §1

[4] = test system: S. aureus SK 23390; assay: in vitro minimum inhibitory concentration (MIC); format: cell-based; conditions: Staphylococcus aureus, SK23390; S. aureus SK 23390, in vitro
Description: as §1

[5] = test system: E. coli SK 12140; assay: in vitro minimum inhibitory concentration (MIC); format: cell-based; conditions: Escherichia coli, SK12140; E. coli SK 12140, in vitro
Description: as §1

[6] = test system: Strep. faecalis HH 34358; assay: in vitro minimum inhibitory concentration (MIC); format: cell-based; conditions: Enterococcus faecalis, HH34358; Strep. faecalis HH 34358, in vitro
Description: as §1

[7] = test system: Entero. cloacae HH 31254; assay: in vitro minimum inhibitory concentration (MIC); format: cell-based; conditions: Enterobacter cloacae, HH31254; Entero. cloacae HH 31254, in vitro
Description: as §1

[8] = test system: Kleb. pneumo. SK 1200; assay: in vitro minimum inhibitory concentration (MIC); format: cell-based; conditions: Kleb. pneumo. SK 1200, in vitro
Description: as §1

[9] = test system: Proteus morgani 179; assay: in vitro minimum inhibitory concentration (MIC); format: cell-based; conditions: Proteus morgani 179, in vitro
Description: as §1

[10] = test system: S. aureus HH 127; assay: in vitro minimum inhibitory concentration (MIC); format: cell-based; conditions: Staphylococcus aureus, HH127; S. aureus HH 127, in vitro
Description: as §1

[11] = test system: Pseudo. aerug. HH 63; assay: in vitro minimum inhibitory concentration (MIC); format: cell-based; conditions: Pseudo. aerug. HH 63, in vitro
Description: as §1

[12] = test system: S. villaluz SK 70390; assay: in vitro minimum inhibitory concentration (MIC); format: cell-based; conditions: S. villaluz SK 70390, in vitro
Description: as §1

[13] = test system: Entero aerog. ATCC 13048; assay: in vitro minimum inhibitory concentration (MIC); format: cell-based; conditions: Entero aerog. ATCC 13048, in vitro
Description: as §1

[14] = test system: Serrata marc. ATCC 13880; assay: in vitro minimum inhibitory concentration (MIC); format: cell-based; conditions: Serrata marc. ATCC 13880, in vitro
Description: as §1

[15] = test system: Kleb. pneumo. SK 4200; assay: in vitro minimum inhibitory concentration (MIC); format: cell-based; conditions: Kleb. pneumo. SK 4200, in vitro
Description: as §1

[16] = test system: Kleb. pneumo. 4200; assay: in vivo mouse protection test; conditions: sc, Kleb. pneumo. 4200, subcutaneous injection
Text: (§2) 4200 upon subcutaneous injection.

[17] = test system: E. coli 12140; assay: in vivo mouse protection test; conditions: Escherichia coli, sc, E. coli 12140, subcutaneous injection
Text: as §2

O=C(O)C1=C(CSc2nnc(CS(=O)(=O)O)o2)CS[C@@H]2[C@H](NC(=O)[C@H](O)c3ccccc3)C(=O)N12 [7-D-Mandelamido-3-(5-sulfomethyl-1,3,4-oxadiazol-2-ylthiomethyl)-3-cephem-4-carboxylic acid] gave an MIC [1] of 0.8 µg/mL (≈ 1.47 µM), an MIC [2] of 1.6 µg/mL (≈ 2.95 µM) and an MIC [3] of 3.1 µg/mL (≈ 5.71 µM). It also gave an MIC [4] of 1.6 µg/mL (≈ 2.95 µM), an MIC [5] of 1.6 µg/mL (≈ 2.95 µM) and an MIC [6] of 50 µg/mL (≈ 92.2 µM). The MIC [7] was 1.6 µg/mL (≈ 2.95 µM), the MIC [8] was 0.8 µg/mL (≈ 1.47 µM) and the MIC [9] was 25 µg/mL (≈ 46.1 µM). The MIC [10] was 3.1 µg/mL (≈ 5.71 µM), the MIC [11] was > 200 µg/mL and the MIC [12] was 200 µg/mL (≈ 369 µM). The MIC [13] was 3.1 µg/mL (≈ 5.71 µM), the MIC [14] was 100 µg/mL (≈ 184 µM) and the MIC [15] was 1.6 µg/mL (≈ 2.95 µM). For the same compound, the ED50 [16] was 1.56 mg/kg and the ED50 [17] was 1.56 mg/kg.
